Measurements: ChEMBL document CHEMBL4145553, “Design, synthesis, and biological evaluation of novel amide and hydrazide based thioether analogs targeting Histone deacteylase (HDAC) enzymes” (Eur J Med Chem, 2018)

Assays:
OVCAR-5 = test: Growth of human OVCAR5 cells at 10 uM incubated for 48 hrs by sulforhodamine B assay relative to control; settings: OVCAR-5, 48 h
UACC-62 = test: Growth of human UACC62 cells at 10 uM incubated for 48 hrs by sulforhodamine B assay relative to control; settings: UACC-62, 48 h
KM12 = test: Growth of human KM12 cells at 10 uM incubated for 48 hrs by sulforhodamine B assay relative to control; settings: KM12, 48 h
PC-3 = test: Growth inhibition of human PC3 cells at 10 uM incubated for 48 hrs by sulforhodamine B assay relative to control; assay type: functional; settings: PC-3, 48 h, values are per cent of control
RXF 393 = test: Growth inhibition of human RXF393 cells at 10 uM incubated for 48 hrs by sulforhodamine B assay relative to control; assay type: functional; settings: RXF 393, 48 h, values are per cent of control
U-251 = test: Growth of human U251 cells at 10 uM incubated for 48 hrs by sulforhodamine B assay relative to control; settings: U-251, 48 h
M14 = test: Growth of human M14 cells at 10 uM incubated for 48 hrs by sulforhodamine B assay relative to control; settings: M14, 48 h
K562 = test: Growth of human K562 cells at 10 uM incubated for 48 hrs by sulforhodamine B assay relative to control; settings: K562, 48 h
MDA-MB-435 = test: Growth of human MDA-MB-435 cells at 10 uM incubated for 48 hrs by sulforhodamine B assay relative to control; settings: MDA-MB-435, 48 h
786-0 = test: Growth inhibition of human 786-0 cells at 10 uM incubated for 48 hrs by sulforhodamine B assay relative to control; assay type: functional; settings: 786-0, 48 h, values are per cent of control
CCRF-CEM = test: Growth of human CCRF-CEM cells at 10 uM incubated for 48 hrs by sulforhodamine B assay relative to control
HCC 2998 = test: Growth of human HCC2998 cells at 10 uM incubated for 48 hrs by sulforhodamine B assay relative to control; settings: HCC 2998, 48 h
SK-MEL-5 = test: Growth of human SK-MEL-5 cells at 10 uM incubated for 48 hrs by sulforhodamine B assay relative to control; settings: SK-MEL-5, 48 h
IGROV-1 = test: Growth of human IGROV1 cells at 10 uM incubated for 48 hrs by sulforhodamine B assay relative to control; settings: IGROV-1, 48 h
A549 = test: Growth of human A549/ATCC cells at 10 uM incubated for 48 hrs by sulforhodamine B assay relative to control; settings: A549, 48 h
SF-295 = test: Growth of human SF295 cells at 10 uM incubated for 48 hrs by sulforhodamine B assay relative to control; settings: SF-295, 48 h
HCT-15 = test: Growth of human HCT15 cells at 10 uM incubated for 48 hrs by sulforhodamine B assay relative to control; settings: HCT-15, 48 h
SK-MEL-2 = test: Growth of human SK-MEL-2 cells at 10 uM incubated for 48 hrs by sulforhodamine B assay relative to control; settings: SK-MEL-2, 48 h
OVCAR-4 = test: Growth of human OVCAR4 cells at 10 uM incubated for 48 hrs by sulforhodamine B assay relative to control; settings: OVCAR-4, 48 h
OVCAR-8 = test: Growth of human OVCAR8 cells at 10 uM incubated for 48 hrs by sulforhodamine B assay relative to control; settings: OVCAR-8, 48 h
NCI-H23 = test: Growth inhibition of human NCI-H23 cells at 10 uM incubated for 48 hrs by sulforhodamine B assay relative to control; assay type: functional; settings: NCI-H23, 48 h, values are per cent of control
MOLT-4 = test: Growth of human MOLT4 cells at 10 uM incubated for 48 hrs by sulforhodamine B assay relative to control; settings: MOLT-4, 48 h
NCI-H226 = test: Growth inhibition of human NCI-H226 cells at 10 uM incubated for 48 hrs by sulforhodamine B assay relative to control; assay type: functional; settings: NCI-H226, 48 h, values are per cent of control
MDA-MB-468 = test: Growth inhibition of human MDA-MB-468 cells at 10 uM incubated for 48 hrs by sulforhodamine B assay relative to control; assay type: functional; settings: MDA-MB-468, 48 h, values are per cent of control
Hs-578T = test: Growth inhibition of human Hs 578T cells at 10 uM incubated for 48 hrs by sulforhodamine B assay relative to control; assay type: functional; settings: values are per cent of control
COLO 205 = test: Growth of human COLO205 cells at 10 uM incubated for 48 hrs by sulforhodamine B assay relative to control; settings: COLO 205, 48 h

| Structure (SMILES) | growth, % of control at 10 µM (OVCAR-5) [%] | growth, % of control at 10 µM (UACC-62) [%] | growth, % of control at 10 µM (KM12) [%] | growth, % of control at 10 µM (PC-3) [%] | growth, % of control at 10 µM (RXF 393) [%] | growth, % of control at 10 µM (U-251) [%] | growth, % of control at 10 µM (M14) [%] | growth, % of control at 10 µM (K562) [%] | growth, % of control at 10 µM (MDA-MB-435) [%] | growth, % of control at 10 µM (786-0) [%] | growth, % of control at 10 µM (CCRF-CEM) [%] | growth, % of control at 10 µM (HCC 2998) [%] | growth, % of control at 10 µM (SK-MEL-5) [%] | growth, % of control at 10 µM (IGROV-1) [%] | growth, % of control at 10 µM (A549) [%] | growth, % of control at 10 µM (SF-295) [%] | growth, % of control at 10 µM (HCT-15) [%] | growth, % of control at 10 µM (SK-MEL-2) [%] | growth, % of control at 10 µM (OVCAR-4) [%] | growth, % of control at 10 µM (OVCAR-8) [%] | other results |
| --- | --- | --- | --- | --- | --- | --- | --- | --- | --- | --- | --- | --- | --- | --- | --- | --- | --- | --- | --- | --- | --- |
| CC(C)(C)S/C(Nc1ccccc1)=C(\C#N)C(=O)N/N=C\c1ccco1 | 101 | 93.5 | 104 | 90.7 | 105 | 94.7 | 105 | 100 | 101 | 102 | 92.2 | 107 | 96.9 | 106 | 79.6 | 102 | 99.2 | 103 | 104 | 94.9 | growth, % of control at 10 µM (NCI-H23): 99%; growth, % of control at 10 µM (MOLT-4): 88.6%; growth, % of control at 10 µM (NCI-H226): 92%; growth, % of control at 10 µM (MDA-MB-468): 95.8%; growth, % of control at 10 µM (Hs-578T): 92.5%; growth, % of control at 10 µM (COLO 205): 102% |
| CC(C)(C)S/C(Nc1ccccc1)=C(\C#N)C(=O)N/N=C\c1ccc(Cl)cc1Cl | 106 | 89.9 | 102 | 96.3 | 103 | 98.6 | 98.5 | 91.8 | 104 | 97.8 | 88.3 | 98.6 | 98.7 | 98.7 | 98.1 | 97.9 | 102 | 91.6 | 112 | 97.3 | growth, % of control at 10 µM (NCI-H23): 92.5%; growth, % of control at 10 µM (MOLT-4): 86.2%; growth, % of control at 10 µM (NCI-H226): 92.6%; growth, % of control at 10 µM (MDA-MB-468): 98.9%; growth, % of control at 10 µM (Hs-578T): 90.1%; growth, % of control at 10 µM (COLO 205): 112% |
| CCS/C(Nc1ccccc1)=C(\C#N)C(=O)Nc1ccccc1 | 96.5 | 79.8 | 90 | 92.4 | 101 | 92.6 | 128 | 89.9 | 110 | 88.5 | 82.4 | 96.1 | 93.5 | 105 | 86.2 | 91.3 | 93.7 | 87.6 | 102 | 94.2 | growth, % of control at 10 µM (NCI-H23): 94.3%; growth, % of control at 10 µM (MOLT-4): 69.2%; growth, % of control at 10 µM (NCI-H226): 92.9%; growth, % of control at 10 µM (MDA-MB-468): 90.7%; growth, % of control at 10 µM (Hs-578T): 96.9%; growth, % of control at 10 µM (COLO 205): 113% |
